Laboratory results published in PMC8131842, “Therapeutic Potential of Vasoactive Intestinal Peptide and its Derivative Stearyl-Norleucine-VIP in Inflammation-Induced Osteolysis” (Frontiers in Pharmacology, 2021).

Legend:
[1] = Rat model of transepithelial penetrability (vaginal delivery of 125I-SNV, organ radioactivity); assay type: in vivo; conditions: 125I-labelled SNV
Excerpt: Rat model of transepithelial penetrability. Because of the high hydrophobicity of SNV, we employed an iodination labeling protocol based on the Chloramine T method ([Markwell, 1982]) using 1 mCi Na^125I with a few modifications that included 1) the dissolution of SNV in dimethylformamide (DMF), 2) replacement of the phosphate buffer with 0.2 M HEPES (pH = 7.6), a more compatible buffer, and 3) reaction termination by the addition of sodium metabisulfite and KI. The pharmacokinetic profile of ^125I-SNV absorption and distribution was evaluated following vaginal delivery of the compound to rats. Wistar rats at the estrus phase received 50 µl (7.0 µCi/rat, 15 million CPM, 100 Ci/mM specific activity) of ^125I-SNV dissolved in 5% Sefsol, applied directly in the vagina, using a P100 micro pipettor. At the indicated time points, we anesthetized the rats with chloral hydrate and collected blood before cervical dislocation. We then harvested the uterus, liver, lungs, heart, intestine, kidneys and vagina (duplicate samples were taken from each organ). Organs were weighed and radioactivity levels were measured using a gamma counter. Each point on the chart represents at least two rats.
7.0 microCi/rat (15 million CPM, 100 Ci/mmole specific activity) of radioactive SNV was delivered in the vagina of rats at T0. Each point on the chart represents at least two rats. Levels of radioactivity were monitored over 250 min to assess the remaining amount of SNV in the vagina (A) versus its distribution in the indicated organs (B) as a measure of its penetrability through the vaginal epithelium. Data are Mean ± SD.

[2] = tested on: Primary murine macrophages/preosteoclasts; experiment: MTT viability assay; assay type: cell-based, mouse; conditions: 10^-6 M, 20 ng/ml M-CSF, 1, 3 and 5 days of treatment, N=5
Description: MTT assay. For proliferation assay, macrophages were plated (4000 cells/well) into 96-well plate with standard medium supplemented with 20 ng of M-CSF. Cells were treated as indicated with either TiP, SNV, VIP (10^−6 M) or vehicle at first day of incubation. Cells viability was determined using dimethylthiazol-diphenyl-tetrazolium-bromide (MTT) after 1, 3 or 5 days. MTT was added to a final concentration of 5 mg/ml and incubated for 4 h at 37°C. After complete solubilization of the die in DMSO, plates were read at 570 nm in a colorimetric plate reader.
FIGURE 4 VIP and SNV alleviate the osteoclastogenic effect of TiP-induced inflammation. (A) Primary BMDM were exposed to TiP and RNA was collected after 24 h. mRNA expression are presented as Mean±SD fold change versus Control. * p<0.05 vs. Control. (B-D) Primary murine preosteoclasts were cultured in 20 ng/ml M-CSF and 50 ng/ml RANKL for 48 h. Conditioned medium from macrophages (Control) and macrophages exposed to Ti particles (Ti, as in A) was then added together with 10^-6M of VIP or SNV (or saline) for 48 h before TRAP staining. Data are Mean±SD for osteoclast % surface area (B) and number per well (C). (D) Representative images all acquired at a 4x original magnification. The scale bar for all images is in the upper left panel. n=8, #p<0.05 vs. Control; *p<0.05 vs. Ti, ANOVA. […]

[3] = tested on: LPS-stimulated primary murine macrophages (IL1β, IL6 and TNFα expression); experiment: Pro-inflammatory cytokine mRNA expression (RT-qPCR) in LPS-stimulated macrophage cultures; assay type: cell-based, mouse; conditions: 10^−6 M, added 1 h before LPS 1 μg/ml, 24 h, bone marrow-derived macrophages
Description: Cell culture. Primary bone marrow-derived macrophages (BMDMs) were isolated from the femora and tibiae of 10-week-old C57BL/6J mice (Envigo, Israel), as previously described ([Hiram-Bab et al., 2015]). Briefly, cells were cultured overnight at 37°C in a humidified atmosphere with 5% CO2 in our “standard medium” consisting of alpha-modified Eagle’s medium (αMEM, Life Science Technology, NY, United States) and 10% fetal bovine serum (FBS, Rhenium, Ltd., Modi’in, Israel). After 24 h, the non-adherent fraction was cultured in 10-cm non-culture-treated dishes containing standard medium and 100 ng/ml macrophage colony stimulating factor (M-CSF) ([Takeshita et al., 2000]). The resulting adherent BMDMs were collected after 3 days for the specific assays described below.
RNA isolation, and RT-qPCR. Following a 24 h incubation with Ti particles (or LPS/vehicle only/SNV/VIP in addition to Ti particles), macrophages were washed with sterile PBS, and RNA was extracted using Tri-RNA Reagent (Favorgen Biotech Corp, Kaohsiung, Taiwan). The 260/280 absorbance ratio was measured to verify the RNA purity and concentration. cDNA was produced using a high-capacity cDNA reverse transcription kit (Invitrogen, Grand Island, NY, United States), and real-time PCR was performed using Kapa SYBR Fast qPCR (Kapa Biosystems, Wilmington, MA, United States) on a StepOne real-time PCR machine (Applied Biosystems, Grand Island, NY, United States).
The following primers were used: F-[…] and R-[…] for mouse IL1β; F-[…] and R-[…] for mouse IL6; F-[…] and R-[…] for mouse TNFα; F-CCGTAACTGCACTGAAGA-AG and R-[…] for VPAC-1; F-CAGCAGACCAGGAAACAT-AA and R-GCCACACGCATCTATGAA for VPAC-2 and F-[…] and R-[…] for Gapdh. The reaction was subjected to 40 cycles of amplification using the following program: 95°C for 20 s, 60°C for 20 s, and 72°C for 25 s. The relative mRNA expression levels of the selected genes were normalized to the level of Gapdh.
IL1β, IL6 and TNFα are the main mediators of Ti particle-mediated inflammation and osteolysis ([Eger et al., 2017]; [Eger et al., 2018]). […]

[4] = 7.0 µCi/rat in 5% Sefsol, vaginal delivery, Wistar rats at estrus, monitored over 250 min, gamma counter, at least two rats per point

In the case of “Stearyl–HSDAVFTDNYTRLRKQ-Nle-AVKKYLNSILN-NH2 [SNV, Stearyl-norleucine-VIP, lipophilic VIP derivative with N-terminal stearic acid and norleucine in place of methionine at position 17]”, the “Levels of SNV in the blood, heart, lungs, liver, gut, uterus and kidneys (radioactivity)” value [1, 4] is reported as “steadily increased”, the “Local levels of SNV in the vagina (radioactivity)” value [1, 4] is reported as “decline over time” and the “Penetrability through the vaginal epithelium” value ([1]; vaginal delivery in rats, over 250 min) is reported as “high penetrability”. For the same substance, the “Viability of the cells (MTT, optical density)” value [2] was “neither VIP nor SNV affected the viability”, the “Effect on TNFα expression vs LPS” value ([3]; n=5) was “no effect” and the “Reduction of IL1β expression levels vs LPS” value ([3]; n=5, p < 0.05) was 35%. For the same substance, the “Change of IL6 expression vs LPS” value ([3]; n=5, plus = increase) was “no effect”.
